What was measured:
Type in all cases: functional, cell-based
MDA-MB-435 = assay: Cytotoxicity against human MDA-MB-435 cells assessed as reduction in cell growth incubated for 72 hrs by MTT assay; details: MDA-MB-435, 72 h
[1] = Cytotoxicity against human p53HCT116 cells assessed as inhibition of cell growth incubated for 72 hrs by MTT assay; details: p53HCT116, 72 h
[2] = Cytotoxicity against human HCT116-p53-null cells assessed as inhibition of cell growth incubated for 72 hrs by MTT assay
MH60 = assay: Cytotoxicity in mouse MH60 cells assessed as inhibition of recombinant human IL-6-induced growth incubated for 72 hrs by tetrazolium method; details: MH60, 72 h

| Compound | IC50 (MDA-MB-435) [nM] | IC50 [1] [nM] | IC50 [2] [nM] | IC50 (MH60) [nM] |
| --- | --- | --- | --- | --- |
| O=C(NNc1nc2cc(F)ccc2n2cccc12)c1cnccn1 | 400 | 400 | 400 |  |
| CCCCC1=C(C)C(=O)[C@@](C)(CN2c3ccccc3[C@]3(O)CCO[C@H]23)C1=O |  |  |  | 8000 |
| CCCCC1=C(C)C(=O)[C@](C)(CN2c3ccccc3[C@]3(O)CCO[C@H]23)C1=O |  |  |  | 30000 |
| Cc1c(-c2ccc(O)cc2)n(Cc2ccc(OCCN3CCCCCC3)cc2)c2ccc(O)cc12 [BAZEDOXIFENE] |  |  |  | 3800 |

Source: ChEMBL document CHEMBL5338732, “Perspective for Discovery of Small Molecule IL-6 Inhibitors through Study of Structure-Activity Relationships and Molecular Docking” (J Med Chem, 2023)
